One assay has as its target T1, IKZF1 (Homo sapiens, UniProt Q13422+Q96SW2).
T1 construct: expressed in transfected cells
Nature of the assay: HEK293 HiBiT in vitro degradation of IKZF1. It counts as cell-based. Particulars: for Dmax: HEK293, HEK293 HiBiT; for DC50: 18-24 hr incubation, normalized to DMSO control, read-out: IKZF1 EC50. A digest of the protocol:
(§1)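 Read-out: Nano-Glo lytic HiBiT luminescence after 18-24 h compound exposure at 37 °C, fitted to EC50 and Dmax. Cells were Flp-In T-REx HEK293 expressing linker-HiBiT fused to the C-terminus of each target, doxycycline-induced ([…] final) overnight beforehand.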

A further assay deals with IKZF2 (Homo sapiens, UniProt Q96SW2+Q9UKS7). Nature of the assay: HEK293 HiBiT in vitro degradation of IKZF2. It counts as cell-based. The arrangement: expressed in transfected cells. As to conditions: for Dmax: HEK293, HEK293 HiBiT; for DC50: 18-24 hr incubation, normalized to DMSO control, read-out: IKZF2 EC50. An outline of the steps:
as §1

Where [1] appears, read: maximum degradation at the highest concentration tested.
The mark [2] stands for this setting: HEK293 HiBiT, maximum degradation at the highest concentration tested.

Sequence of IKZF2 (Q9UKS7 1-500 isoform Q9UKS7-2): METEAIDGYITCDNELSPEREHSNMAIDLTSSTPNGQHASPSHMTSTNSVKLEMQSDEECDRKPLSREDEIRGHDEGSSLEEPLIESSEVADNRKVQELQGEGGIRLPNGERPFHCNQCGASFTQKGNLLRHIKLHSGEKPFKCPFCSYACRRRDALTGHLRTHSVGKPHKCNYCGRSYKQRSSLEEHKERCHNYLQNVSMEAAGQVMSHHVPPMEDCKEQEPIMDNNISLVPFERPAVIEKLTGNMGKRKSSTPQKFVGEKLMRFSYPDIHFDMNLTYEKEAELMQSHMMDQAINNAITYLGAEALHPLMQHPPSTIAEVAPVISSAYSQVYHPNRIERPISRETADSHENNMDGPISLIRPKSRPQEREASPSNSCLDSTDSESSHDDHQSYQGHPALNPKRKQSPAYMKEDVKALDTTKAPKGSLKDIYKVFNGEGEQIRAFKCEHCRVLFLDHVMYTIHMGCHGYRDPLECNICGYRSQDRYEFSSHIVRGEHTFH
Sequence of IKZF2 (Q96SW2 whole entry): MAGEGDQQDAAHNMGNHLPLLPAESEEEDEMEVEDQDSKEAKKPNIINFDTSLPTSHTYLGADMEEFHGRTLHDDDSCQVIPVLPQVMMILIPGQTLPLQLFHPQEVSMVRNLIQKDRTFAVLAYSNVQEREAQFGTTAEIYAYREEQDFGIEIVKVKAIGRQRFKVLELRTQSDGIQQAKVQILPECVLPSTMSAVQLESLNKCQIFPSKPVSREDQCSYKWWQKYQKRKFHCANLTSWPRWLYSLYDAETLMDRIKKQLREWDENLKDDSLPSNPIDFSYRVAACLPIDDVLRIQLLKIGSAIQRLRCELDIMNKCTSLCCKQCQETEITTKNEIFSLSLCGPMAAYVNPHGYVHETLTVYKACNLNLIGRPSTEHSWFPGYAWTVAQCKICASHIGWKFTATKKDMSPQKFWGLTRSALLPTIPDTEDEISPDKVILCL
Sequence of IKZF2 (Q16531 whole entry partner): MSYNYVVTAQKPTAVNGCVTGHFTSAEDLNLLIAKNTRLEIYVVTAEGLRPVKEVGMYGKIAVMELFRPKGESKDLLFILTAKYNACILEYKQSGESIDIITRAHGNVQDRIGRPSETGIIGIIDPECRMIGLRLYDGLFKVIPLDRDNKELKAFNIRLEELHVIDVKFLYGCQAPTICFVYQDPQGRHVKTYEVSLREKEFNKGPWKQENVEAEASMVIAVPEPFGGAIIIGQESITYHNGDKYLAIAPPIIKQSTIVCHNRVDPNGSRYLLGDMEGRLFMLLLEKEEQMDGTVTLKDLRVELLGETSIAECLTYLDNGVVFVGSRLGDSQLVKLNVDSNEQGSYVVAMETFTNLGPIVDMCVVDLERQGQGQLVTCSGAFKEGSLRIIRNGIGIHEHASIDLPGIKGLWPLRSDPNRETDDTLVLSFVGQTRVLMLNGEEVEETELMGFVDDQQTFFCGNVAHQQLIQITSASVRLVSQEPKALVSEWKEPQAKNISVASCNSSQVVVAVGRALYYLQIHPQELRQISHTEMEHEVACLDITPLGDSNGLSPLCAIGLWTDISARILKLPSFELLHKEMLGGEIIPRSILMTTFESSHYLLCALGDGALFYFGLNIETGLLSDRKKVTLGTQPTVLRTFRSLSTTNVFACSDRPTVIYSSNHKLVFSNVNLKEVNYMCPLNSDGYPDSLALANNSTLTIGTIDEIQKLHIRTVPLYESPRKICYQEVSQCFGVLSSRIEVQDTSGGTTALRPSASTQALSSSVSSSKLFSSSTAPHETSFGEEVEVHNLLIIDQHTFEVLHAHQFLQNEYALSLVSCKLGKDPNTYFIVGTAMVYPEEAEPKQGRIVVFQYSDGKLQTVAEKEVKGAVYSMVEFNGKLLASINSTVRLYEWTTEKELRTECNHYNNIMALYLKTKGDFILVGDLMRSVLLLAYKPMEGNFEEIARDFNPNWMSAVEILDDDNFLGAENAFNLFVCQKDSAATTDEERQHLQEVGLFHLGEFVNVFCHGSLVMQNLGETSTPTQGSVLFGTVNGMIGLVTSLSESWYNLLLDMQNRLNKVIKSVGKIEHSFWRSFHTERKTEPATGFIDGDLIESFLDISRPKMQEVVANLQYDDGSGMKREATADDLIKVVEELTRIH
T1 sequence (Q13422 whole entry): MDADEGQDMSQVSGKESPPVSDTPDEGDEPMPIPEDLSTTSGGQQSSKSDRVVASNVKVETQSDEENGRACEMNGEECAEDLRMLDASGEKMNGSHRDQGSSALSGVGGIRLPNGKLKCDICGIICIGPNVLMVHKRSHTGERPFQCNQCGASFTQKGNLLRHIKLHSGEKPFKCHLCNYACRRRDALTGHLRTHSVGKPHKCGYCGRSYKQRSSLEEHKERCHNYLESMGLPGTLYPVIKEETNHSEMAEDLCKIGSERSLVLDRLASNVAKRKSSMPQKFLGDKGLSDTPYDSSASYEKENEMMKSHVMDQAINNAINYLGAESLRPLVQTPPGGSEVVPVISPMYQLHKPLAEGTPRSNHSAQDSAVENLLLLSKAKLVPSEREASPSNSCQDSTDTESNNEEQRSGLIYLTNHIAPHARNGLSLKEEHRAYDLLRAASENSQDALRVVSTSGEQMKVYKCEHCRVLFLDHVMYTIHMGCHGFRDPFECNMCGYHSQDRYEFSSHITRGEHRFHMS
T1 sequence (Q96SW2 whole entry): as the sequence (Q96SW2 whole entry) above
T1 sequence (Q16531 whole entry partner): as the sequence (Q16531 whole entry partner) above

On to `O=C1CCC(N2Cc3c(ccc(C[C@H]4CCCC[C@@H]4NC4CCCCC4)c3F)C2=O)C(=O)N1` (stereo partly drawn) [Example 88, 3-(5-(((1R,2S)-2-(cyclohexylamino)cyclohexyl)methyl)-4-fluoro-1-oxoisoindolin-2-yl)piperidine-2,6-dione], for which the Dmax was 38% on IKZF1 (setting [1]) and 99% at IKZF2 (setting [1]). Besides, the values for the DC50 at IKZF1 (HEK293 HiBiT) and on IKZF2 (HEK293 HiBiT) were 101 nM and 1 nM, respectively.
In the case of `CC(C)(C)CCN(CCC(C)(C)C)[C@H]1CCCC[C@@H]1Cc1ccc2c(c1F)CN(C1CCC(=O)NC1=O)C2=O` (stereo partly drawn) [Example 90, 3-(5-(((1R,2S)-2-(bis(3,3-dimethylbutyl)amino)cyclohexyl)methyl)-4-fluoro-1-oxoisoindolin-2-yl)piperidine-2,6-dione], the results for the DC50 at IKZF1 (HEK293 HiBiT) and on IKZF2 (HEK293 HiBiT) were more than 1000 nM and 69 nM, respectively. The compound also yielded a Dmax on IKZF2 (setting [1]) of 75%.
On to `O=C1CCC(N2Cc3cc(C[C@H]4CCCC[C@@H]4NC4CCS(=O)(=O)CC4)ccc3C2=O)C(=O)N1` (stereo partly drawn) [Example 91, 3-(5-(((1R,2S)-2-((1,1-dioxidotetrahydro-2H-thiopyran-4-yl)amino)cyclohexyl)methyl)-1-oxoisoindolin-2-yl)piperidine-2,6-dione], for which the results for the Dmax on IKZF1 (setting [1]) and at IKZF2 (setting [1]) were 47% and 97%, respectively. The results for the DC50 on IKZF1 (HEK293 HiBiT) and on IKZF2 (HEK293 HiBiT) were 160 nM and 17 nM, respectively.
For the compound `O=C1CCC(N2Cc3cc(C[C@H]4OCCC[C@@H]4NC4CCC(F)(F)CC4)ccc3C2=O)C(=O)N1` (stereo partly drawn) [Example 92, 3-(5-(((2R,3S)-3-((4,4-difluorocyclohexyl)amino)tetrahydro-2H-pyran-2-yl)methyl)-1-oxoisoindolin-2-yl)piperidine-2,6-dione], the DC50 is more than 1000 nM at IKZF1 (HEK293 HiBiT) and 44 nM at IKZF2 (HEK293 HiBiT). Also, at IKZF2 (setting [1]), the Dmax was 82%.
With `O=C1CCC(N2Cc3cc(C[C@H]4CCCC[C@@H]4NCCc4ccccc4)ccc3C2=O)C(=O)N1` (stereo partly drawn) [Example 93, 3-(1-oxo-5-(((1R,2S)-2-(phenethylamino)cyclohexyl)methyl)isoindolin-2-yl)piperidine-2,6-dione], the Dmax at IKZF1 (setting [1]) turned out to be 22%; on IKZF2 (setting [1]) it was 91%. In addition, the DC50 at IKZF1 (HEK293 HiBiT) was 39 nM; on IKZF2 (HEK293 HiBiT), 23 nM.
With `O=C1CCC(N2Cc3c(ccc(C[C@H]4CCCC[C@@H]4NCC45CC(C4)C5)c3F)C2=O)C(=O)N1` (some centres unmarked) [Example 96], the Dmax at IKZF1 (setting [1]) worked out at 35%; at IKZF2 (setting [1]), 95%. Besides, the results for the DC50 at IKZF1 (HEK293 HiBiT) and at IKZF2 (HEK293 HiBiT) were 173 nM and 9 nM, respectively.
Turning to `O=C1CCC(N2Cc3c(ccc(C[C@H]4CCCC[C@@H]4NCC4CCC(F)(F)CC4)c3F)C2=O)C(=O)N1` (some centres unmarked) [Example 99], the Dmax stood at 37% at IKZF1 (setting [1]) and 94% on IKZF2 (setting [1]). The DC50 on IKZF1 (HEK293 HiBiT) turned out to be 68 nM; on IKZF2 (HEK293 HiBiT), 14 nM.
Consider `CC1(C)CC2(CC(N[C@H]3CCCC[C@@H]3Cc3ccc4c(c3)CN(C3CCC(=O)NC3=O)C4=O)C2)C1` (some centres unmarked) [Example 100], for which the Dmax on IKZF1 (setting [1]) came to 34%; at IKZF2 (setting [1]) it was 94%. The DC50 at IKZF1 (HEK293 HiBiT) was 61 nM; on IKZF2 (HEK293 HiBiT), 12 nM.
With `CC(N[C@H]1CCCC[C@@H]1Cc1ccc2c(c1)CN(C1CCC(=O)NC1=O)C2=O)C1CC1` (some centres unmarked) [Example 102], the Dmax at IKZF1 (setting [1]) was 27%; at IKZF2 (setting [1]) it was 96%. In addition, the DC50 is 242 nM on IKZF1 (HEK293 HiBiT) and 6 nM on IKZF2 (HEK293 HiBiT).
On to `O=C1CCC(N2Cc3cc(C[C@H]4CCCC[C@@H]4NCCC(F)(F)F)ccc3C2=O)C(=O)N1` (some centres unmarked) [Example 104], for which the values for the Dmax on IKZF1 (setting [1]) and at IKZF2 (setting [1]) were 37% and 92%, respectively. In addition, the DC50 at IKZF1 (HEK293 HiBiT) is 75 nM; at IKZF2 (HEK293 HiBiT), 16 nM.
On to `O=C1CCC(N2Cc3cc(C[C@H]4CCCC[C@@H]4NC4CCCC[C@@H]4F)ccc3C2=O)C(=O)N1` (some centres unmarked) [Example 105], for which the values for the Dmax on IKZF1 (setting [1]) and at IKZF2 (setting [1]) were 31% and 96%, respectively. Moreover, the DC50 on IKZF1 (HEK293 HiBiT) was determined as 76 nM; on IKZF2 (HEK293 HiBiT), 4 nM.
For `O=C1CCC(N2Cc3cc(C[C@H]4CCCC[C@@H]4NC4CCCC[C@@H]4F)ccc3C2=O)C(=O)N1` (some centres unmarked) [Example 106], the figures for the DC50 on IKZF1 (HEK293 HiBiT) and at IKZF2 (HEK293 HiBiT) were 79 nM and 10 nM, respectively. Moreover, on IKZF1 (setting [2]), the “IKZF1 Dmax” value is reported as 24%. Moreover, the “IKZF2 Dmax” value on IKZF2 (setting [2]) was determined as 95%.
With `O=C1CCC(N2Cc3cc(C[C@H]4CCCC[C@@H]4NC4CCCC[C@H]4F)ccc3C2=O)C(=O)N1` (some centres unmarked) [Example 107], the values for the Dmax at IKZF1 (setting [1]) and on IKZF2 (setting [1]) were 36% and 96%, respectively. The DC50 on IKZF1 (HEK293 HiBiT) amounted to 81 nM; on IKZF2 (HEK293 HiBiT) it was 3 nM.
With `CC(=O)N1CCC(N[C@H]2CCCC[C@@H]2Cc2ccc3c(c2)CN(C2CCC(=O)NC2=O)C3=O)CC1` (some centres unmarked) [Example 108], the DC50 at IKZF1 (HEK293 HiBiT) is more than 1000 nM; at IKZF2 (HEK293 HiBiT) it was 55 nM. Further, on IKZF2 (setting [1]), the Dmax stood at 96%.
For the compound `O=C1CCC(N2Cc3cc(C[C@H]4CCCC[C@@H]4NC4CCCCC4(F)F)ccc3C2=O)C(=O)N1` (some centres unmarked) [Example 111], the DC50 on IKZF1 (HEK293 HiBiT) is more than 1000 nM; on IKZF2 (HEK293 HiBiT), 91 nM. On IKZF2 (setting [1]), this compound registered a Dmax of 81%.
In the case of `O=C1CCC(N2Cc3cc(C[C@H]4CCCC[C@@H]4NC4CC5CCC(C4)O5)ccc3C2=O)C(=O)N1` (some centres unmarked) [Example 112], the values for the Dmax on IKZF1 (setting [1]) and at IKZF2 (setting [1]) were 30% and 97%, respectively. For the same compound, the DC50 at IKZF1 (HEK293 HiBiT) came to 56 nM; on IKZF2 (HEK293 HiBiT) it was 3 nM.
On to `CN(C1CCC(F)(F)CC1)[C@H]1CCCC[C@@H]1Cc1ccc2c(c1)CN(C1CCC(=O)NC1=O)C2=O` (stereo partly drawn) [Example 123, 3-(5-(((1R,2S)-2-((4,4-difluorocyclohexyl)(methyl)amino)cyclohexyl)methyl)-1-oxoisoindolin-2-yl)piperidine-2,6-dione], for which the DC50 on IKZF1 (HEK293 HiBiT) is more than 1000 nM; at IKZF2 (HEK293 HiBiT) it was 26 nM. At IKZF2 (setting [1]), this compound returned a Dmax of 88%.
For the compound `O=C1CCC(N2Cc3cc(C[C@H]4CCOC[C@@H]4NC4CCC(F)(F)CC4)ccc3C2=O)C(=O)N1` (some centres unmarked) [Example 126], the DC50 at IKZF1 (HEK293 HiBiT) is more than 1000 nM; at IKZF2 (HEK293 HiBiT), 114 nM. The Dmax at IKZF2 (setting [1]) is 80%.
Take `CC(CF)N[C@H]1CCCC[C@@H]1Cc1ccc2c(c1)CN(C1CCC(=O)NC1=O)C2=O` (some centres unmarked) [Example 127]: the Dmax worked out at 72% at IKZF1 (setting [1]) and 68% at IKZF2 (setting [1]). Also, the DC50 at IKZF1 (HEK293 HiBiT) and at IKZF2 (HEK293 HiBiT) was 15 nM throughout.
Take `CCCCN[C@H]1CCCC[C@@H]1Cc1ccc2c(c1)CN(C1CCC(=O)NC1=O)C2=O` (some centres unmarked) [Example 128]: the greatest degradation seen (Dmax) was determined as 19% on IKZF1 (setting [1]) and 98% on IKZF2 (setting [1]). Moreover, the DC50 on IKZF1 (HEK293 HiBiT) amounted to 94 nM; at IKZF2 (HEK293 HiBiT), 18 nM.
On to `CC(N[C@H]1CCCC[C@@H]1Cc1ccc2c(c1)CN(C1CCC(=O)NC1=O)C2=O)C(F)F` (some centres unmarked) [Example 130], for which the DC50 on IKZF1 (HEK293 HiBiT) is more than 1000 nM; at IKZF2 (HEK293 HiBiT) it was 148 nM. Also, at IKZF2 (setting [1]), the Dmax came out at 76%.
On to `O=C1CCC(N2Cc3cc(C[C@H]4CCCC[C@@H]4NC4CCc5ccccc54)ccc3C2=O)C(=O)N1` (some centres unmarked) [Example 131], for which the results for the Dmax on IKZF1 (setting [1]) and on IKZF2 (setting [1]) were 45% and 96%, respectively. The results for the DC50 at IKZF1 (HEK293 HiBiT) and on IKZF2 (HEK293 HiBiT) were 78 nM and 4 nM, respectively.
In the same order, the values of `O=C1CCC(N2Cc3cc(C[C@H]4CCCC[C@@H]4NC4CC5CCC5C4)ccc3C2=O)C(=O)N1` (some centres unmarked) [Example 132] are 45%, 97%, 66 nM and 4 nM.
In the case of `CC(C)(C#N)CCN[C@H]1CCCC[C@@H]1Cc1ccc2c(c1)CN(C1CCC(=O)NC1=O)C2=O` (some centres unmarked) [Example 133], the Dmax on IKZF1 (setting [1]) came out at 30%; on IKZF2 (setting [1]) it was 96%. Further, the DC50 stood at 132 nM on IKZF1 (HEK293 HiBiT) and 32 nM on IKZF2 (HEK293 HiBiT).
